Laboratory results taken from PubChem BioAssay (NCI).
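Results reflect a 48-hour exposure of cells in 96-well plates to compound at five concentrations. TGI denotes the concentration required for complete inhibition of growth.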

How the values were obtained:
Assay in all cases: NCI tumour cell line growth inhibition, 48 h
PC-3 prostate = test system: PC-3 prostate
HCT-116 colon = test system: HCT-116 colon
HL-60(TB) leukemia = test system: HL-60(TB) leukemia
IGROV1 ovarian = test system: IGROV1 ovarian
OVCAR-4 ovarian = test system: OVCAR-4 ovarian
SNB-75 CNS = test system: SNB-75 CNS
UACC-257 melanoma = test system: UACC-257 melanoma
BT-549 breast = test system: BT-549 breast
DU-145 prostate = test system: DU-145 prostate
UACC-62 melanoma = test system: UACC-62 melanoma
MALME-3M melanoma = test system: MALME-3M melanoma
HCT-15 colon = test system: HCT-15 colon
TK-10 renal = test system: TK-10 renal
NCI/ADR-RES ovarian = test system: NCI/ADR-RES ovarian
U251 CNS = test system: U251 CNS
OVCAR-8 ovarian = test system: OVCAR-8 ovarian
M14 melanoma = test system: M14 melanoma
786-0 renal = test system: 786-0 renal
RPMI-8226 leukemia = test system: RPMI-8226 leukemia

Row | Structure (SMILES) | TGI (PC-3 prostate) [µM] | TGI (HCT-116 colon) [µM] | TGI (HL-60(TB) leukemia) [µM] | TGI (IGROV1 ovarian) [µM] | TGI (OVCAR-4 ovarian) [µM] | TGI (SNB-75 CNS) [µM] | TGI (UACC-257 melanoma) [µM] | TGI (BT-549 breast) [µM] | TGI (DU-145 prostate) [µM] | TGI (UACC-62 melanoma) [µM] | TGI (MALME-3M melanoma) [µM] | TGI (HCT-15 colon) [µM] | TGI (TK-10 renal) [µM] | TGI (NCI/ADR-RES ovarian) [µM] | TGI (U251 CNS) [µM] | TGI (OVCAR-8 ovarian) [µM] | TGI (M14 melanoma) [µM] | TGI (786-0 renal) [µM] | TGI (RPMI-8226 leukemia) [µM]
1 | O=S(=O)(CC#CCS(=O)(=O)c1ccccc1)c1ccccc1 | 22.3 | 2.39 | 16.1 | 2.94 | 3.71 | 5.55 | 14.7 | 11.8 | 17.4 | 11.5 | 3.82 | 4 | 7.61 | > 83 | 24.5 | 5.16 | 4.36 | 2.24 | –
2 | CC(C)(C)OC(=O)NCCNC(=O)OCc1ccccc1 | > 100 | – | – | > 100 | – | > 100 | > 100 | > 100 | > 100 | > 100 | > 100 | > 100 | > 100 | > 100 | > 100 | > 100 | > 100 | > 100 | > 100
3 | O=C1c2ccccc2C(=O)c2c1c1cc(O)ccc1n2Cc1ccc(Cl)cc1Cl | 3.97 | 73.2 | > 100 | 21.2 | 4.27 | – | 69.9 | 36.9 | > 100 | 21.8 | 63.9 | 23.3 | 27.4 | 11.7 | 12.2 | 19.1 | 46.6 | 8.09 | 26.7
4 | CCN(CC)CC(C(=O)Nc1c(C)cccc1C)/C(C)=N/NC(N)=S (centres undefined) | – | > 100 | > 100 | > 100 | – | > 100 | > 100 | – | – | > 100 | > 100 | – | > 100 | – | > 100 | > 100 | > 100 | > 100 | > 100
5 | CC1=C2CC3=C(C)C(=O)O[C@H]3C[C@@H](C)[C@@H]2CC1 | > 100 | > 100 | > 100 | > 100 | > 100 | > 100 | > 100 | > 100 | – | > 100 | > 100 | > 100 | > 100 | > 100 | > 100 | > 100 | > 100 | > 100 | > 100
6 | CC1CCCC2(O1)OC1CC(=O)OC1C1=C2C(=O)c2ccccc2C1=O (centres undefined) | – | – | 3.48 | 6.87 | 3.83 | 23.7 | 3.95 | – | – | 5.1 | 4.43 | 8.04 | 21 | – | 32.5 | 7.06 | 7.89 | 3.85 | 4.27
7 | Cc1ccc(-c2c(C#N)c(O)n(NS(=O)(=O)c3ccccc3)c(=O)c2C#N)cc1 | > 100 | > 100 | > 100 | > 100 | > 100 | > 100 | > 100 | > 100 | – | > 100 | > 100 | > 100 | > 100 | > 100 | > 100 | > 100 | > 100 | > 100 | –
